Results from PMC12203311, “Design, synthesis, in silico and in vitro evaluation of pyrrole–indole hybrids as dual tubulin and aromatase inhibitors with potent anticancer activities” (RSC Advances, 2025).

Tests used:
HL-60 (TB) = assay: NCI60 five-dose screen; assay type: cell-based; details: Homo sapiens, leukemia
NCI-H226 = assay: NCI60 five-dose screen; assay type: cell-based; details: Homo sapiens, NCI-H226, NSC lung cancer
MDA-MB-435 = assay: NCI60 five-dose screen; assay type: cell-based, human; details: Homo sapiens; MDA-MB-435, melanoma
M14 = assay: NCI60 five-dose screen; assay type: cell-based; details: Homo sapiens, M14, melanoma
NCI-H460 = assay: NCI60 five-dose screen; assay type: cell-based; details: Homo sapiens, NCI-H460, NSC lung cancer
UACC-257 = assay: NCI60 five-dose screen; assay type: cell-based; details: Homo sapiens, UACC-257, melanoma
CAKI-1 = assay: NCI60 five-dose screen; assay type: cell-based; details: Homo sapiens, CAKI-1, renal cancer
SK-MEL-2 = assay: NCI60 five-dose screen; assay type: cell-based; details: Homo sapiens, SK-MEL-2, melanoma
LOX IMVI = assay: NCI60 five-dose screen; assay type: cell-based; details: Homo sapiens, melanoma
DU-145 = assay: NCI60 five-dose screen; assay type: cell-based; details: Homo sapiens, DU-145, prostate cancer
OVCAR-3 = assay: NCI60 five-dose screen; assay type: cell-based; details: Homo sapiens, OVCAR-3, ovarian cancer
SF-295 = assay: NCI60 five-dose screen; assay type: cell-based; details: Homo sapiens, SF-295, CNS cancer
MDA-MB-468 = assay: NCI60 five-dose screen; assay type: cell-based; details: Homo sapiens, MDA-MB-468, breast cancer
PC-3 = assay: NCI60 five-dose screen; assay type: cell-based; details: Homo sapiens, PC-3, prostate cancer
NCI-H23 = assay: NCI60 five-dose screen; assay type: cell-based; details: Homo sapiens, NCI-H23, NSC lung cancer
[1] = tested on: T47D breast cancer cell line; assay: Cytotoxicity MTT assay, T47D; assay type: cell-based, human; details: Homo sapiens, T47D; MTT, 48 hours
Protocol: T47D (ATCC HTB-133) was purchased from Biomedia (Thailand) Co., LTD. L929 (ATCC CCL-1) was received as a gift from Prof. Tanapat Palaga, Department of Microbiology, Faculty of Science, Chulalongkorn University, Bangkok, Thailand. The cells were cultured in Dulbecco's Modified Eagle's Medium (DMEM; Gibco) supplemented with 10% fetal bovine serum (FBS; HyClone), 100 U mL^−1 penicillin and 100 µg mL^−1 streptomycin (Gibco) at 37 °C with 5% CO2.
The antiproliferative activity was determined by MTT assay. Briefly, the cells were plated into a 96-well microplate at the density of 10 000 cells per well. The cells were allowed to grow overnight before treated with the solutions of compounds in culture medium at the designated concentrations for 48 hours. The medium was then replaced with MTT solution (0.5 mg mL^−1 MTT in culture medium) and incubated for 3 hours. A 100 µL of DMSO was used to dissolve the produced formazan. Absorbance at 570 nm was then measured using a microplate reader (Varioskan™ LUX multimode microplate reader, Thermo Scientific™). Percent viability was calculated relative to the vehicle control (DMSO).

IGROV1 = assay: NCI60 five-dose screen; assay type: cell-based; details: Homo sapiens, IGROV-1; IGROV1, ovarian cancer
MOLT-4 = assay: NCI60 five-dose screen; assay type: cell-based; details: Homo sapiens; MOLT-4, leukemia
HCT-116 = assay: NCI60 five-dose screen; assay type: cell-based; details: Homo sapiens, HCT-116, colon cancer
HT29 = assay: NCI60 five-dose screen; assay type: cell-based; details: Homo sapiens, HT-29, HT29, colon cancer
RPMI-8226 = assay: NCI60 five-dose screen; assay type: cell-based; details: Homo sapiens, RPMI-8226, leukemia
HCC-2998 = assay: NCI60 five-dose screen; assay type: cell-based; details: Homo sapiens, HCC-2998, colon cancer
HOP-92 = assay: NCI60 five-dose screen; assay type: cell-based; details: Homo sapiens, HOP-92, NSC lung cancer
HS 578T = assay: NCI60 five-dose screen; assay type: cell-based; details: Homo sapiens, breast cancer
BT-549 = assay: NCI60 five-dose screen; assay type: cell-based; details: Homo sapiens, BT-549, breast cancer
OVCAR-5 = assay: NCI60 five-dose screen; assay type: cell-based; details: Homo sapiens, OVCAR-5, ovarian cancer
HCT-15 = assay: NCI60 five-dose screen; assay type: cell-based; details: Homo sapiens, HCT-15, colon cancer
MDA-MB-231/ATCC = assay: NCI60 five-dose screen; assay type: cell-based; details: Homo sapiens, breast cancer
OVCAR-8 = assay: NCI60 five-dose screen; assay type: cell-based; details: Homo sapiens, OVCAR-8, ovarian cancer
HOP-62 = assay: NCI60 five-dose screen; assay type: cell-based; details: Homo sapiens, HOP-62, NSC lung cancer
[2] = read-out: LC50 (the source's name)

Compound `O=C(N/N=C/c1cc(Cl)c[nH]1)c1[nH]c2ccc(Br)cc2c1-c1ccccc1` [Derivative 3h, (E)-5-Bromo-N′-((4-chloro-1H-pyrrol-2-yl)methylene)-3-phenyl-1H-indole-2-carbohydrazide] has a GI50 (HL-60 (TB)) of 185 nM, a CC50 (HL-60 (TB); [2]) of 886 nM and a GI50 (NCI-H226) of 604 nM. The CC50 (NCI-H226; [2]) was over 100000 nM, the GI50 (MDA-MB-435) was 185 nM and the GI50 (M14) was 305 nM. For the same compound, the CC50 (M14; [2]) was 50300 nM, the GI50 (NCI-H460) was 281 nM and the CC50 (NCI-H460; [2]) was 9240 nM. The GI50 (UACC-257) was 856 nM, the CC50 (UACC-257; [2]) was 58800 nM and the GI50 (CAKI-1) was 253 nM. It also gave a CC50 (CAKI-1; [2]) of 27500 nM, a GI50 (SK-MEL-2) of 260 nM and a CC50 (SK-MEL-2; [2]) of 47900 nM. For the same compound, the GI50 (LOX IMVI) was 370 nM, the CC50 (LOX IMVI; [2]) was 16700 nM and the GI50 (DU-145) was 352 nM. The CC50 (DU-145; [2]) was 27200 nM, the GI50 (OVCAR-3) was 270 nM and the CC50 (OVCAR-3; [2]) was 19700 nM. It also gave a GI50 (SF-295) of 237 nM, a CC50 (SF-295; [2]) of 58500 nM and a GI50 (MDA-MB-468) of 251 nM. For the same compound, the CC50 (MDA-MB-468; [2]) was 27800 nM, the GI50 (PC-3) was 426 nM and the CC50 (PC-3; [2]) was 47600 nM. The GI50 (NCI-H23) was 317 nM, the CC50 (NCI-H23; [2]) was 36500 nM and the IC50 [1] was 2400 ± 1800 nM. The GI50 (IGROV1) was 538 nM, the GI50 (MOLT-4) was 283 nM and the GI50 (HCT-116) was 331 nM. For the same compound, the CC50 (HCT-116; [2]) was 29100 nM, the GI50 (HT29) was 287 nM and the CC50 (HT29; [2]) was 7200 nM. For the same compound, the GI50 (RPMI-8226) was 446 nM, the CC50 (RPMI-8226; [2]) was over 100000 nM and the GI50 (HCC-2998) was 224 nM. The CC50 (HCC-2998; [2]) was 4200 nM, the GI50 (HOP-92) was 1190 nM and the CC50 (HOP-92; [2]) was 55400 nM. The GI50 (HS 578T) was 284 nM, the CC50 (HS 578T; [2]) was over 100000 nM and the GI50 (BT-549) was 255 nM. For the same compound, the CC50 (BT-549; [2]) was 18100 nM, the GI50 (OVCAR-5) was 473 nM and the CC50 (OVCAR-5; [2]) was 36000 nM. It also gave a GI50 (HCT-15) of 302 nM, a CC50 (HCT-15; [2]) of 21900 nM and a GI50 (MDA-MB-231/ATCC) of 296 nM. For the same compound, the CC50 (MDA-MB-231/ATCC; [2]) was 26900 nM, the GI50 (OVCAR-8) was 214 nM and the CC50 (OVCAR-8; [2]) was 988 nM. It also gave a GI50 (HOP-62) of 408 nM and a CC50 (HOP-62; [2]) of 34700 nM.
